Results taken from US12590071B2, “Hydrazone derivative in which terminal amine group is substituted with aryl group or heteroaryl group, and use thereof” (KOREA INSTITUTE OF SCIENCE AND TECHNOLOGY, priority 2018, dated 2026).

Tests used:
tau protein = biological target: T1, tau protein (Homo sapiens, UniProt P10636); assay: Tau protein aggregation inhibition in tau-BiFC cell model; type: cell-based; settings: tau-BiFC cells treated together with Forskolin, 48 hours
T1 construct: expressed in transfected cells
T1 sequence (P10636 2-441 isoform P10636-8 limits assumed): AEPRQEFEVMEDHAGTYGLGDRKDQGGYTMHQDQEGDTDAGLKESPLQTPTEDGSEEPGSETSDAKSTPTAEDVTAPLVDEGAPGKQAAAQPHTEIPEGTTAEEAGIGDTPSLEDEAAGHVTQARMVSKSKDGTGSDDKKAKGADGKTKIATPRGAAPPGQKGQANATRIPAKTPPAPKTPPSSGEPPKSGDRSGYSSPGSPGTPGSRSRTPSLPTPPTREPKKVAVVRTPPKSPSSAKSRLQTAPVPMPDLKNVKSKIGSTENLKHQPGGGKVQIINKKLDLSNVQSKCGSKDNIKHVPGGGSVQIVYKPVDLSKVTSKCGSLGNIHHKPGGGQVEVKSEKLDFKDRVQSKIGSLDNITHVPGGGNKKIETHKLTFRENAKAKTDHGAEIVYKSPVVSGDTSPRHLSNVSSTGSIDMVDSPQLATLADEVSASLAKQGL
Summary of the method: (§1)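 Tau-BiFC cells co-treated 48 h with Forskolin ([…]) and compound at 0.03–30 μM. BiFC fluorescence quantified by imaging, IC50 by nonlinear regression; cytotoxicity as Hoechst-stained nuclei count relative to Forskolin-only wells (100% survival).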

Tau-BiFC cells = assay: Cytotoxicity (cell survival rate) in tau-BiFC cells; settings: group treated with Forskolin alone = 100%
Summary of the method: as §1

CYP3A4 = biological target: T2, CYP3A4 (Homo sapiens, UniProt P08684); assay: Inhibition of CYP coenzyme activity in human liver microsomes; type: in vitro ADME; parameters: scale not given here; settings: compound 10 PM (so in the source); human liver microsomes 0.25 mg/mL; substrate midazolam; 15 minutes
T2 construct: human liver microsomes (0.25 mg/mL); from tissue; host or cells: human liver microsomes
T2 sequence (P08684 whole entry): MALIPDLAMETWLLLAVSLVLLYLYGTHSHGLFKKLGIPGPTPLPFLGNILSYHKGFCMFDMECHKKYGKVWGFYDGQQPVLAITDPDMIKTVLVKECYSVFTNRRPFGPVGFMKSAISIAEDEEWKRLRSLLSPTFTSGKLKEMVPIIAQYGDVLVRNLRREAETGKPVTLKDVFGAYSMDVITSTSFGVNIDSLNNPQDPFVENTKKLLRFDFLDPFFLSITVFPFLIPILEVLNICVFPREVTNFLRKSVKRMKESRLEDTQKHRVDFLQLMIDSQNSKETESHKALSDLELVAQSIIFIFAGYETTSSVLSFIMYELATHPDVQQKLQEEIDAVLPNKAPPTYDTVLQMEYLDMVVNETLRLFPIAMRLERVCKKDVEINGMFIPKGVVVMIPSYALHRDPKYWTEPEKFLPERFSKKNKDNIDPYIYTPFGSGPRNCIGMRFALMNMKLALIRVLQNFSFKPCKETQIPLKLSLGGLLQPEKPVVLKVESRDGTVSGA
Summary of the method: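 Human liver microsomes (0.25 mg/mL) in 0.1 M phosphate pH 7.4 with a substrate cocktail (phenacetin 50 μM, diclofenac 10 μM, S-mephenytoin 100 μM, dextromethorphan 5 μM, midazolam 2.5 μM) and compound at 0 or 10 μM. Preincubated 5 min at 37 °C, then 15 min with NADPH system. Metabolites quantified by LC-MS/MS (MRM).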

[1] = Liver microsomal stability (mouse); type: in vitro ADME; settings: amount of substrate remaining; 1 μM, 0.25 mg/mL microsomes, 37° C., 30 minutes
Summary of the method: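 Compound at 1 μM with microsomes (0.25 mg/mL each species) in 0.1 M phosphate buffer pH 7.4, preincubated 5 min at 37 °C, then 30 min at 37 °C after NADPH-generating system addition. Quenched with acetonitrile plus internal standard; remaining substrate measured by LC-MS/MS.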

SMILES	IC50 (tau protein) [nM]	Cell survival rate (% @ 10 μM) (Tau-BiFC cells) [%]	inhibition effects of CYP coenzyme activity, CYP3A4 (CYP3A4)	liver microsomal stability, Mouse (%) [1] [%]
N#CC(C#N)=NNc1ccc(-c2ncccn2)cc1 [Compound 1, (4-(pyrimidin-2-yl)phenyl)carbonohydrazonoyl dicyanide]	490	74	89.4	86.1
N#CC(C#N)=NNc1ccc(-c2ncc(F)cn2)cc1 [Compound 2, (4-(5-fluoropyrimidin-2-yl)phenyl)carbonohydrazonoyl dicyanide]	1300	59	>100	6.4
Cc1ncc(-c2ccc(NN=C(C#N)C#N)cc2)s1 [Compound 11, (4-(2-methylthiazol-5-yl)phenyl)carbonohydrazonoyl dicyanide]	50	146.2	97.6	65.6
N#CC(C#N)=NNc1ccc(-c2cnc3ccnn3c2)cc1 [Compound 50, (4-(pyrazolo[1,5-a]pyrimidin-6-yl)phenyl)carbonohydrazonoyl dicyanide]	730	76	95	89.5
Cc1cnc(C(=O)Nc2nc3ccc(NN=C(C#N)C#N)cc3s2)cn1 [Compound 93, (2-(5-methylpyrazine-2-carboxamido)benzo[d]thiazol-6-yl)carbonohydrazonoyl dicyanide]	60	129.2	91.5	37.3
